SMILES strings stand for the structures. Where a name gives a salt, the structure may show the parent alone. Read-outs that look alike come from different tables or passages of the source.

In the test the test system is HT-29 cells. Kind of test: HT-29 necroptosis cell viability assay (TNF-α/SMAC mimetic/zVAD-FMK, CellTiter-Glo). The test is classed as cell-based. Conditions: Homo sapiens. An outline of the steps: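 Necroptosis was triggered by TNF-α (10 ng/ml), SMAC mimetic (6 μM) and zVAD-FMK (10 μM) in serum-free medium during 20 h compound exposure (10 concentrations, threefold steps) of HT-29 cells. IC50 from duplicate dose-responses uses CellTiter-Glo ATP luminescence as viability read-out.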

Where [1] appears, read: HT-29, HT-29 necroptosis cell viability, IC50 class symbols, read-out: Activity.
Setting [2] is: HT-29, HT-29 necroptosis cell viability assay, class symbols for IC50, read-out: Activity.
[3] abbreviates: HT-29, HT-29 cells, necroptosis induced by TNF-α/SMAC mimetic/zVAD-FMK, CellTiter-Glo, read-out: Activity (IC50 class).
Setting [4] is: HT-29 cells stimulated with TNF-α (10 ng/ml), SMAC mimetic (6 μM) and zVAD-FMK (10 μM), 20 hours, CellTiter-Glo ATP luminescence, geometric mean IC50 from 10 points, read-out: Activity.

In the case of `CC(C)(C)OC(=O)NC[C@H]1CCN1c1cc(Oc2ccc(-n3ncn(Cc4c(F)cccc4F)c3=O)cc2F)c(F)cn1` [Example 373, tert-butyl (R)-((1-(4-(4-(4-(2,6-difluorobenzyl)-5-oxo-4,5-dihydro-1H-1,2,4-triazol-1-yl)-2-fluorophenoxy)-5-fluoropyridin-2-yl)azetidin-2-yl)methyl)carbamate], the IC50 under setting [1] is less than 0.1 µM. In the case of `O=c1n(Cc2c(F)cccc2F)cnn1-c1ccc(Oc2ccnc(N3CCOCC3)c2)cc1` [Example 526, 4-(2,6-difluorobenzyl)-2-(4-((2-morpholinopyridin-4-yl)oxy)phenyl)-2,4-dihydro-3H-1,2,4-triazol-3-one], the IC50 under setting [2] was 1 to 10 µM. As to `C[C@H]1C[C@@H](C#N)CN1c1cc(Oc2ccc(-n3ncn(Cc4c(F)cccc4F)c3=O)cc2)ccn1` [Example 282, (3R,5S)-1-(4-(4-(4-(2,6-difluorobenzyl)-5-oxo-4,5-dihydro-1H-1,2,4-triazol-1-yl)phenoxy)pyridin-2-yl)-5-methylpyrrolidine-3-carbonitrile], the IC50 under setting [1] is less than 0.1 µM. Consider `CCOC1(C)CN(c2cc(Oc3ccc(-n4ncn(Cc5c(F)cccc5F)c4=O)cc3Cl)c(F)cn2)C1` [Example 501, 2-(3-chloro-4-((2-(3-ethoxy-3-methylazetidin-1-yl)-5-fluoropyridin-4-yl)oxy)phenyl)-4-(2,6-difluorobenzyl)-2,4-dihydro-3H-1,2,4-triazol-3-one], for which the IC50 under setting [2] is less than 0.1 µM. As to `CC1(N)CN(c2nccc(Oc3ccc(-n4ncn(Cc5c(F)cccc5F)c4=O)cc3F)c2Cl)C1` [Example 420, 2-(4-((2-(3-amino-3-methylazetidin-1-yl)-3-chloropyridin-4-yl)oxy)-3-fluorophenyl)-4-(2,6-difluorobenzyl)-2,4-dihydro-3H-1,2,4-triazol-3-one], under setting [1], the IC50 was less than 0.1 µM.

As to `CC1(O)CN(c2cc(Oc3ncc(-n4ncn(Cc5c(F)cccc5F)c4=O)cc3F)ccn2)C1` [Example 249, 4-(2,6-difluorobenzyl)-2-(5-fluoro-6-((2-(3-hydroxy-3-methylazetidin-1-yl)pyridin-4-yl)oxy)pyridin-3-yl)-2,4-dihydro-3H-1,2,4-triazol-3-one], under setting [1], the IC50 fell in the range of 0.1 to 1 µM. Regarding `Cc1nc(C#N)sc1Oc1ccc(-n2ncn(Cc3ccccc3F)c2=O)cc1F` [Example 561, 5-(2-fluoro-4-(4-(2-fluorobenzyl)-5-oxo-4,5-dihydro-1H-1,2,4-triazol-1-yl)phenoxy)-4-methylthiazole-2-carbonitrile], under setting [2], the IC50 is less than 0.1 µM. As to `Cc1nc(C2=CCNC2)sc1Oc1ccc(-n2ncn(Cc3c(F)cccc3F)c2=O)cc1` [Example 542, 4-(2,6-difluorobenzyl)-2-(4-((2-(2,5-dihydro-1H-pyrrol-3-yl)-4-methylthiazol-5-yl)oxy)phenyl)-2,4-dihydro-3H-1,2,4-triazol-3-one], the IC50 under setting [2] was less than 0.1 µM. For the compound `N#C[C@H]1CCN(c2cc(Oc3ccc(-n4ncn(Cc5c(F)cccc5F)c4=O)cc3)ccn2)C1` [Example 401, (S)-1-(4-(4-(4-(2,6-difluorobenzyl)-5-oxo-4,5-dihydro-1H-1,2,4-triazol-1-yl)phenoxy)pyridin-2-yl)pyrrolidine-3-carbonitrile], the IC50 under setting [1] is less than 0.1 µM. With `Cc1nc(C(N)=O)sc1OC1CCC(n2nc3n(c2=O)[C@H](c2ccccc2)CC3)CC1` (stereo partly drawn) [Example 635, (S)-4-methyl-5-((4-(3-oxo-5-phenyl-6,7-dihydro-3H-pyrrolo[2,1-c][1,2,4]triazol-2(5H)-yl)cyclohexyl)oxy)thiazole-2-carboxamide], under setting [3], the IC50 lay in the range of 1 to 10 µM. Turning to `Cc1cccnc1Cn1cnn(-c2ccc(Oc3sc(C(C)(C)O)nc3C)c(F)c2)c1=O` [Example 464, 2-(3-fluoro-4-((2-(2-hydroxypropan-2-yl)-4-methylthiazol-5-yl)oxy)phenyl)-4-((3-methylpyridin-2-yl)methyl)-2,4-dihydro-3H-1,2,4-triazol-3-one], the IC50 under setting [1] is 0.1 to 1 µM.

On to `CCOC1CN(c2cc(Oc3ccc(-n4ncn(Cc5c(Cl)cccc5Cl)c4=O)cc3)ccn2)C1` [Example 486, 4-(2,6-dichlorobenzyl)-2-(4-((2-(3-ethoxyazetidin-1-yl)pyridin-4-yl)oxy)phenyl)-2,4-dihydro-3H-1,2,4-triazol-3-one], for which, under setting [2], the IC50 was 0.1 to 1 µM. On to `Cc1nc(C(N)=O)sc1Oc1ccc(-n2nc3n(c2=O)[C@@H](c2ccc(F)cc2)CC3)cc1F` (single isomer, unassigned) [Example 669], for which the IC50 under setting [3] fell in the range of 1 to 10 µM. Regarding `N#Cc1ccc(=O)n(Cc2ccc(-n3ncn(Cc4c(F)cccc4F)c3=O)cc2)c1` [Example 195, 1-(4-(4-(2,6-difluorobenzyl)-5-oxo-4,5-dihydro-1H-1,2,4-triazol-1-yl)benzyl)-6-oxo-1,6-dihydropyridine-3-carbonitrile], under setting [2], the IC50 lay in the range of 0.1 to 1 µM.

Regarding `NC[C@H]1CCN1c1cc(Oc2ccc(-n3ncn(Cc4c(F)cccc4F)c3=O)cc2F)c(F)cn1` [Example 375, (R)-2-(4-((2-(2-(aminomethyl)azetidin-1-yl)-5-fluoropyridin-4-yl)oxy)-3-fluorophenyl)-4-(2,6-difluorobenzyl)-2,4-dihydro-3H-1,2,4-triazol-3-one], under setting [1], the IC50 was less than 0.1 µM. Regarding `CCOC(=O)c1nc(Oc2ccc(-n3ncn(Cc4c(F)cccc4F)c3=O)cc2F)n(C)c1C` [Example 181, ethyl 2-(4-(4-(2,6-difluorobenzyl)-5-oxo-4,5-dihydro-1H-1,2,4-triazol-1-yl)-2-fluorophenoxy)-1,5-dimethyl-1H-imidazole-4-carboxylate], the IC50 under setting [2] lay in the range of 0.1 to 1 µM. On to `O=c1n(Cc2c(F)cccc2F)cnn1-c1ccc(Oc2cncc(N3CC4(CCOCC4)C3)c2)cc1` [Example 285, 2-(4-((5-(7-oxa-2-azaspiro[3.5]nonan-2-yl)pyridin-3-yl)oxy)phenyl)-4-(2,6-difluorobenzyl)-2,4-dihydro-3H-1,2,4-triazol-3-one], for which the IC50 under setting [1] is less than 0.1 µM. Same read-out and setting: in the case of `CC1(N)CN(c2nccc(Oc3ccc(-n4ncn(Cc5c(F)cccc5F)c4=O)cc3)c2F)C1` [Example 321, 2-(4-((2-(3-amino-3-methylazetidin-1-yl)-3-fluoropyridin-4-yl)oxy)phenyl)-4-(2,6-difluorobenzyl)-2,4-dihydro-3H-1,2,4-triazol-3-one] it was less than 0.1 µM; in that of `N#CC1CN(c2cc(Oc3ccc(-n4ncn(Cc5c(F)cccc5F)c4=O)cc3)ccn2)CC1O` (stereo not shown) [Example 264, 1-(4-(4-(4-(2,6-difluorobenzyl)-5-oxo-4,5-dihydro-1H-1,2,4-triazol-1-yl)phenoxy)pyridin-2-yl)-4-hydroxypyrrolidine-3-carbonitrile], less than 0.1 µM. In the case of `Cc1nc(N2CC(N)(CF)C2)sc1Cc1ccc(-n2ncn(Cc3c(F)cccc3F)c2=O)cc1F` [Example 62, 2-(4-((2-(3-amino-3-(fluoromethyl)azetidin-1-yl)-4-methylthiazol-5-yl)methyl)-3-fluorophenyl)-4-(2,6-difluorobenzyl)-2,4-dihydro-3H-1,2,4-triazol-3-one trifluoroacetate], under setting [4], the IC50 is less than 0.1 µM. Consider `CNC(=O)c1nc(C)c(Oc2ccc(-n3ncn(Cc4ncccc4Cl)c3=O)cc2F)s1` [Example 589, 5-(4-(4-((3-chloropyridin-2-yl)methyl)-5-oxo-4,5-dihydro-1H-1,2,4-triazol-1-yl)-2-fluorophenoxy)-N,4-dimethylthiazole-2-carboxamide], for which the IC50 under setting [2] is less than 0.1 µM. `Cc1nc(C(C)(C)O)sc1Oc1ccc(-n2ncn(Cc3cc(F)ccc3F)c2=O)cc1F` [Example 470, 4-(2,5-difluorobenzyl)-2-(3-fluoro-4-((2-(2-hydroxypropan-2-yl)-4-methylthiazol-5-yl)oxy)phenyl)-2,4-dihydro-3H-1,2,4-triazol-3-one]: under setting [1], the IC50 was less than 0.1 µM. For the compound `CCOC1CN(c2nn(C)c(Oc3ccc(-n4ncn(Cc5c(F)cccc5F)c4=O)cc3)c2N)C1` [Example 517, 2-(4-((4-amino-3-(3-ethoxyazetidin-1-yl)-1-methyl-1H-pyrazol-5-yl)oxy)phenyl)-4-(2,6-difluorobenzyl)-2,4-dihydro-3H-1,2,4-triazol-3-one], the IC50 under setting [2] fell in the range of 1 to 10 µM. `Cc1cnc(N2CC(C)(C#N)C2)cc1Oc1ccc(-n2ncn(Cc3c(F)cccc3F)c2=O)cc1Cl` [Example 398, 1-(4-(2-chloro-4-(4-(2,6-difluorobenzyl)-5-oxo-4,5-dihydro-1H-1,2,4-triazol-1-yl)phenoxy)-5-methylpyridin-2-yl)-3-methylazetidine-3-carbonitrile]: the IC50 under setting [1] is less than 0.1 µM.

Consider `Cc1nc(C(N)=O)sc1Oc1ccc(-n2nc3n(c2=O)C(c2ccccc2)CC3)cc1F` (stereo not shown) [Example 13, 5-(2-fluoro-4-(3-oxo-5-phenyl-6,7-dihydro-3H-pyrrolo[2,1-c][1,2,4]triazol-2(5H)-yl)phenoxy)-4-methylthiazole-2-carboxamide], for which the IC50 under setting [4] is less than 0.1 µM. For `COC1(C#N)CN(c2cc(Oc3ccc(-n4ncn(Cc5c(F)cccc5F)c4=O)cc3)c(Cl)cn2)C1` [Example 319, 1-(5-chloro-4-(4-(4-(2,6-difluorobenzyl)-5-oxo-4,5-dihydro-1H-1,2,4-triazol-1-yl)phenoxy)pyridin-2-yl)-3-methoxyazetidine-3-carbonitrile], under setting [1], the IC50 was less than 0.1 µM. The same measure, in the same setting: in the case of `CC(C)(C)OC(=O)NC(C)(C)C1CN(c2cc(Oc3ccc(-n4ncn(Cc5c(F)cccc5F)c4=O)cc3F)c(F)cn2)C1` [Example 372, tert-butyl (2-(1-(4-(4-(4-(2,6-difluorobenzyl)-5-oxo-4,5-dihydro-1H-1,2,4-triazol-1-yl)-2-fluorophenoxy)-5-fluoropyridin-2-yl)azetidin-3-yl)propan-2-yl)carbamate] it was less than 0.1 µM. On to `O=c1n(Cc2c(F)cccc2F)cnn1-c1ccc(Oc2ccnc(N3CCCCC3)c2)cc1` [Example 529, 4-(2,6-difluorobenzyl)-2-(4-((2-(piperidin-1-yl)pyridin-4-yl)oxy)phenyl)-2,4-dihydro-3H-1,2,4-triazol-3-one], for which the IC50 under setting [2] lay in the range of 0.1 to 1 µM.
